Data from US6653081B2, “Methods for monitoring antiretroviral therapy and guiding therapeutic decision in the treatment of HIV/AIDS” (ViroLogic, Inc., priority 2000, dated 2003).
Where “and” joins values, the source holds several entries; their conditions need not be identical. Identical values can stand only once.

Legend:
RTV-005738 = assay: Phenotypic susceptibility assay, RTV-005738; format: cell-based, HIV; settings: patient 005738; for decrease in susceptibility: V245E with multiple other mutations
Description: (§1) The resistance test vectors containing a functional luciferase gene cassette were constructed and host cells were transfected with the resistance test vector DNA. The resistant test vectors contained patient-derived reverse transcriptase and protease sequences that were either susceptible or resistant to the antiretroviral agents, such as nucleoside reverse transcriptase inhibitors, (NRTIs) non-nucleoside reverse transcriptase inhibitors […] protease inhibitors. The resistance test vector viral particles produced by transfecting the resistance test vector DNA into host cells, either in the presence or absence of PRIs, were used to infect target host cells grown either in the absence of NRTIs or NNRTIs, or in the presence of increasing concentrations of the drug. The amount of luciferase activity produced in infected target host cells in the presence of varying concentrations of drug was compared to the amount of luciferase produced in infected target host cells in the absence of drug. “Drug resistance” was measured as the amount of drug required to inhibit by 50% the luciferase activity detected in the absence of drug (inhibitory concentration 50%, IC50). The IC50 values were determined by plotting percent drug inhibition vs. log10 drug concentration. Stimulation of viral replication was measured as the percent increase in luciferase activity detected when infection occurs in the presence of drug as compared to in the absence of drug.
(§2) Host cells were seeded in 10-cm-diameter dishes and were transfected several days after plating with resistance test vector plasmid DNA and the envelope expression vector. Transfections were performed using a calcium-phosphate precipitation procedure. The cell culture media containing the DNA precipitate was replaced with fresh medium, from one to 24 hours, after transfection. Cell culture media containing resistance test vector viral particles was harvested one to four days after transfection and was passed through a […] filter before being used to infect target host cells, or being stored at −80° C. HIV capsid protein (p24) levels in the harvested cell culture media were determined by an EIA method as described by the manufacturer (SAIC; Frederick, Md.). Before infection, target cells (293 and 293/T) were plated in cell culture media. Control infections were performed using cell culture media from mock transfections (no DNA) or transfections containing the resistance test vector plasmid DNA without the envelope expression plasmid. One to three or more days after infection, the media was removed and cell lysis buffer (Promega) was added to each well. Cell lysates were assayed for luciferase activity (FIG. 3). The inhibitory effect of the drug was determined using the following equation:
(§3) % luciferase inhibition=1−(RLUluc[drug]÷RLUluc)×100
(§4) where RLUluc [drug] is the Relative Light Unit of luciferase activity in infected cells in the presence of drug, and RLUluc is the Relative Light Unit of luciferase activity in infected cells in the absence of drug. IC50values were obtained from the sigmoidal curves that were generated from the data by plotting the percent inhibition of luciferase activity vs. the log10 drug concentration. The percent luciferase stimulation is the negative of the % inhibition calculated using the formula above.
A resistance test vector was constructed as described in Example 1 from a virus sample obtained from patient 005738. The prior and current treatment regimens are unknown. Isolation of viral RNA and RT/PCR was used to generate a patient derived segment (PDS) that comprised viral sequences coding for all of PR and aa 1-313 of RT […]. The PDS were inserted into an indicator gene viral vector to generate a resistance test vector designated RTV-005738. RTV-005738 was then tested in a phenotypic assay to determine accurately and quantitatively the level of susceptibility to a panel of anti-retroviral drugs. […]

RTV-1033-3/181C = assay: Phenotypic susceptibility assay, RTV-1033-3/181C; format: cell-based, HIV; settings: RTV-1033-3 plus Y181C
Description: as §1
Host cells were seeded in 10-cm-diameter dishes and were transfected several days after plating with resistance test vector plasmid DNA and the envelope expression vector. Transfections were performed using a calcium-phosphate precipitation procedure. […] HIV capsid protein (p24) levels in the harvested cell culture media were determined by an EIA method as described by the manufacturer (SAIC; Frederick, Md.). […] The inhibitory effect of the drug was determined using the following equation: […]
where RLUluc [drug] is the Relative Light Unit of luciferase activity in infected cells in the presence of drug, and RLUluc is the Relative Light Unit of luciferase activity in infected cells in the absence of drug. […] The percent luciferase stimulation is the negative of the % inhibition calculated using the formula above.
A resistance test vector containing all of the mutations present in RTV-1033-3, in addition to Y181C (RTV-1033-3/181C) was constructed and tested using the phenotypic assay described earlier. The results were compared to those determined using the parent RTV-1033-3. We determined the pattern of phenotypic susceptibility to the NNRTIs, delavirdine, nevirapine and efavirenz, in the mutated vector, RTV-1033-3/181C.

K103N/M230L-RTV = assay: Phenotypic susceptibility assay, K103N/M230L-RTV; format: cell-based, HIV-1; settings: site-directed K103N + M230L
Description: as §1, §2, §3, §4
The M230L mutation was tested alone and is described in Example 3 above. A resistance test vector containing the M230L mutation and the K103N mutation (K103N/M230L-RTV) was constructed and tested using the phenotypic assay described earlier, and the results were compared to those determined using a genetically defined resistance test vector that was wild type at positions 103 and 230. We determined the pattern of phenotypic susceptibility to the NNRTIs, delavirdine, nevirapine and efavirenz, in the K103N/M230L-RTV. […]

M230L-RTV = assay: Phenotypic susceptibility assay, M230L-RTV; format: cell-based, HIV-1; settings: site-directed M230L alone
Description: as §1, §2, §3, §4
The M230L mutation was introduced into a wild-type (drug sensitive) resistance test vector using the mega-primer method for site-directed mutagenesis (Sakar and Sommar, Ibid.). The resulting resistance test vector containing the M230L mutation (M230L-RTV) was then tested using the phenotypic assay described earlier, and the results were compared to those determined using a genetically defined resistance test vector that was wild type at position 230. We determined the pattern of phenotypic susceptibility to the NNRTIs, delavirdine, nevirapine and efavirenz, in the M230L-RTV. […]

RTV-I135T = assay: Phenotypic susceptibility assay, RTV-I135T; format: cell-based, HIV-1; settings: site-directed I135T alone
Description: as §1, §2, §3, §4
A resistance test vector containing a single mutation, I135T, (RTV-I135T) was constructed and tested in the phenotypic assay described earlier. The results were compared to those determined using a genetically defined resistance test vector that was wild type at position 135. We determined the pattern of phenotypic susceptibility to the NNRTIs, delavirdine, nevirapine and efavirenz, in RTV-I135T.

RTV-1033-3 = assay: Phenotypic susceptibility assay, RTV-1033-3; format: cell-based, HIV; settings: single clone from the RTV-1033 pool
Description: as §1, §2, §3, §4
A single clone (RTV-1033-3) was obtained from the patient-derived RTV pool that had mutations and phenotypic patterns of NNRTI susceptibility and drug-dependent stimulation of viral replication characteristic of the RTV-1033 pool. The RTV-1033-3 had the following mutations present in the revere transcriptase: V35I, D67N, T69D, K70R, V106A, D123G, V189L, T200A, I202T, H208Y, R211K, T215F, D218E, K219Q, H221Y, L228H, L283I, R284K, T286A, V293I and E297K.

| Structure (SMILES) | drug-dependent stimulation of viral replication (RTV-005738) | decrease in susceptibility (RTV-005738) | drug-dependent stimulation of viral replication (RTV-1033-3/181C) | reduction in susceptibility compared to wild type control RTV (RTV-1033-3/181C) | drug-dependent stimulation of viral replication (K103N/M230L-RTV) | reduction in susceptibility compared to wild type control RTV (K103N/M230L-RTV) | drug-dependent stimulation of viral replication (M230L-RTV) | reduction in susceptibility compared to wild type control RTV (M230L-RTV) | drug-dependent stimulation of viral replication (RTV-I135T) | reductions in susceptibility compared to wild type control RTV (RTV-I135T) | drug-dependent stimulation of viral replication (RTV-1033-3) | reductions in susceptibility (RTV-1033-3) |
| --- | --- | --- | --- | --- | --- | --- | --- | --- | --- | --- | --- | --- |
| O=C1Nc2ccc(Cl)cc2[C@@](C#CC2CC2)(C(F)(F)F)O1 [efavirenz] | ~20% | 17 fold | ~100% | > 450 fold | ~40% | > 470 fold | not | 23 fold | no drug-dependent stimulation | no reductions | 180% | > 450 fold |
| CC(C)Nc1cccnc1N1CCN(C(=O)c2cc3cc(NS(C)(=O)=O)ccc3[nH]2)CC1 [delavirdine] | ~40% | 63 fold | – | > 250 fold | ~100% | > 250 fold | ~50% | 58 fold | no drug-dependent stimulation | no reductions | 190% | 27 fold |
| Cc1ccnc2c1NC(=O)c1cccnc1N2C1CC1 [nevirapine] | ~20% | > 600 fold | – | > 600 fold | ~70% | > 600 fold | ~50% | 39 fold and 40 fold | no drug-dependent stimulation | no reductions | 200% | > 600 fold |
